The source of these data is PubChem BioAssay (NCI).

Assay in all cases: inhibition of tumour cell growth, NCI panel, 48 h
Test [1] concerns HCC-2998 colon.
Test [2] deals with A549 NSCLC.
Test [3] relates to HCT-15 colon.
Test [4] deals with NCI-H460 lung.
In test [5] the test system is SN12C renal.
Test [6] deals with HCT-116 colon.
In test [7] the test system is SK-OV-3 ovarian.
In test [8] the test system is BT-549 breast.
Test [9] has as its system MCF7 breast.
For test [10], the system named is HOP-62 NSCLC.

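Five compound concentrations were applied to cells in 96-well plates for 48 hours; endpoints were derived by simple linear interpolation of the resulting dose-response curve. GI50 is the concentration that inhibits growth by half. TGI is the concentration that stops growth completely.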

`COc1ccc(C2CC(c3cccc(Nc4ccncc4)c3)=NN2c2ccc(Cl)cc2)cc1` (configuration not stated): the GI50 in [1] was 1.74 µM; in test [2], 1.87 µM; in [3] it was 1.88 µM; in test [4] it was 1.81 µM; in test [5], 1.6 µM; in test [6] it was 1.65 µM. For the same compound, the results for the GI50 in [7], in [8] and in [9] were 2.19 µM, 1.92 µM and 1.83 µM, respectively. For the same compound, the TGI in test [1] is 3.22 µM; in [2], 3.65 µM; in test [3], 3.58 µM; in test [4], 3.37 µM; in test [5], 3.07 µM; in test [6], 3.36 µM. Moreover, the TGI in test [7] amounted to 5.79 µM; in [8], 4 µM; in test [9], 3.63 µM.
For the compound `O=Cc1cc([N+](=O)[O-])no1`, the TGI in test [1] is > 100 µM; in test [3] it was > 100 µM; in [4], > 100 µM; in [5] it was > 100 µM; in [6] it was 33.7 µM; in test [10] it was > 100 µM. Besides, the TGI in [7] was > 100 µM; in [8] it was > 100 µM; in test [9], 86.9 µM.
As to `CS(=O)(=O)OC1CN2CCC1CC2` (configuration not stated), the TGI in test [2], in [3], in [4], in test [5], in [6] and in test [10] was > 100 µM each time. For the same compound, the TGI in test [7], in test [8] and in [9] was > 100 µM throughout.
For the compound `Cc1cccc2cc3c(ccc4ccccc43)c[n+]12`, the TGI in test [1] is 42.7 µM; in test [2], > 100 µM; in [3] it was > 100 µM; in test [4] it was 93.7 µM; in test [5], 20.3 µM; in test [6] it was > 100 µM. The figures for the TGI in test [10], in test [8] and in test [9] were > 100 µM, 54.1 µM and > 100 µM, respectively.
Take `CCN1C=C/C(=C\C=C/c2cc[n+](CC)c3ccccc23)c2ccccc21`: the TGI was determined as 19 µM in [1]; 21.2 µM in test [2]; 34.1 µM in test [3]; 11 µM in test [4]; 12.3 µM in test [5]; 13.4 µM in [6]. Also, the TGI in test [10] worked out at 8.18 µM; in test [7], 15.1 µM; in test [8], 51.2 µM; in test [9], 20 µM.
For the compound `CN(c1cc2ncc(=O)[nH]c2cc1NC(N)=NCc1ccc(Cl)cc1)C1CCCCC1`, the GI50 in test [1] was 1.73 µM; in [2], 9.11 µM; in test [3], 8.27 µM; in test [4] it was 7.14 µM; in test [5], 7.23 µM; in [6], 5.44 µM. Also, the GI50 in test [10] was 8.84 µM; in test [7], 7.6 µM; in [8], 7.4 µM; in test [9], 1.75 µM. For the same compound, the TGI came out at 5.29 µM in test [1]; 18.8 µM in test [2]; 15.4 µM in [3]; 14.5 µM in test [4]; 15.5 µM in [5]; 12.3 µM in test [6]. Further, the TGI in test [10] came out at 19.6 µM; in [7], 15.8 µM; in [8], 14.6 µM; in [9] it was 7.52 µM.
In the case of `Nc1cc2c(nnn2C2OC(COCc3ccccc3)C(OCc3ccccc3)C2OCc2ccccc2)c(=O)[nH]1` (configuration not stated), the TGI was > 100 µM in test [2]; > 100 µM in test [3]; 92.3 µM in [4]; 40.3 µM in test [5]; 46.9 µM in test [6]; > 100 µM in test [10]. The TGI in test [7] was > 100 µM; in test [8], 90.3 µM; in [9], 83.9 µM.
`CCCCCCNC(=O)c1cc(CCc2cc(O)ccc2O)ccc1O`: the TGI came to 9.68 µM in test [1]; 36.3 µM in test [2]; 12.8 µM in test [3]; 27.4 µM in [4]; 5.77 µM in [5]; 13.6 µM in test [6]. Also, the TGI in test [10] stood at 25 µM; in test [7], 25 µM; in test [8] it was 4.35 µM; in [9], 12.4 µM. Besides, the GI50 in [5] was 2.18 µM; in test [6], 3.59 µM.
On to `O=S1(=O)C(c2ccccc2)C(N2CCCCC2)C1C1CC2c3ccccc3C1c1ccccc12` (configuration not stated), for which the TGI in [2], in test [3], in test [4], in [5], in [6] and in test [10] was > 100 µM each time. Moreover, the TGI in [7], in test [8] and in test [9] was > 100 µM in each case.
With `CO/C=C(/C(=O)OC)c1ccccc1[C@@H]1CC1c1cccc(F)c1` (some centres not stated), the TGI in [1] is 94.8 µM; in test [2], 78.5 µM; in test [3] it was 78.1 µM; in test [4] it was > 100 µM; in test [5] it was 98.4 µM; in test [6], 77.3 µM. The TGI in [10] is > 100 µM; in test [7] it was 79.7 µM; in test [8], 61.4 µM; in test [9], > 100 µM.
Regarding `CCOC(=O)C[C@@H]1C2(C=C[C@@]13CO3)OCC(C)(C)CO2`, the TGI in [1], in test [2], in test [3], in test [4], in [5] and in [6] was > 100 µM each time. Also, the TGI in test [10], in test [7], in [8] and in test [9] was > 100 µM each time.
On to `Cc1ccc(NP(=O)(Oc2ccccc2)N(CCCl)CCCl)cc1` (configuration not stated), for which the TGI in test [1], in [2], in test [3], in test [5], in [6] and in [10] was > 100 µM in each case. Also, the TGI in test [7] was > 100 µM.
